This passage reports IC50 results from ChEMBL document CHEMBL1811863, “New 5-deoxyflavonoids and their inhibitory effects on protein tyrosine phosphatase 1B (PTP1B) activity” (Bioorg Med Chem, 2011).

Where only a bound is given, the exact number is not on record here.

This test has as its target T1, Tyrosine-protein phosphatase non-receptor type 1 (Homo sapiens, UniProt P18031).
T1 sequence (P18031 whole entry): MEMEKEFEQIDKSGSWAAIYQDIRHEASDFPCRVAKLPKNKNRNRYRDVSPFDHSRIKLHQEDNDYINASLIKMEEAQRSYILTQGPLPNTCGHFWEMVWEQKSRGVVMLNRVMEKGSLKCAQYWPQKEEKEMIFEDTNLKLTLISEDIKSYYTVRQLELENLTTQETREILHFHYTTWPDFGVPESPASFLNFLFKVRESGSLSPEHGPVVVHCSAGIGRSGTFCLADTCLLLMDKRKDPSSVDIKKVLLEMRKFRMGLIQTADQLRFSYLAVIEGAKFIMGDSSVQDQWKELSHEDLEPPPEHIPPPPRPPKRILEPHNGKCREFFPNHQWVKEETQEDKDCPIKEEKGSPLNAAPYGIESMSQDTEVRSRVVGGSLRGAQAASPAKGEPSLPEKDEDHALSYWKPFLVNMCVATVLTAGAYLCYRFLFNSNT
As to the kind of experiment: Inhibition of human recombinant PTP1B assessed as p-nitorphenol production after 30 mins.
As a reminder, the IC50 is the concentration needed to halve the response being measured. On to `COc1cc([C@@H]2CC(=O)c3ccc(O)cc3O2)ccc1O`, for which the IC50 came out at 98.1 µM.
For `COc1ccc(C2CC(=O)c3ccc(O)cc3O2)cc1CC=C(C)C` (configuration not stated) the value was 16.5 µM; for `CC(C)=CCc1cc([C@@H]2CC(=O)c3ccc(O)cc3O2)ccc1O` [ABYSSINONE II], 29.2 µM.
The same measure for `CC(C)=CCc1cc([C@@H]2CC(=O)c3c(O)cc(O)cc3O2)cc(CC=C(C)C)c1O` [ABYSSINONE V]: 22.6 µM; for `CC(C)=CCc1cc([C@@H]2CC(=O)c3ccc(O)cc3O2)cc2c1OC(C)(C)C=C2` [ABYSSINONES III]: 72.9 µM; for `COc1cc(OC)c([C@H]2COc3cc(O)ccc3C2=O)cc1CC=C(C)C` [ERYTHRIBYSSIN E]: 15.2 µM.
For `CC(C)=CCc1cc([C@@H]2CC(=O)c3ccc(O)cc3O2)cc2c1OC(C)(C)C(O)C2` (some centres not stated) [ERYTHRIBYSSIN G] the value was 35.8 µM; for `CC1(C)Oc2ccc([C@@H]3CC(=O)c4ccc(O)cc4O3)cc2CC1O` (some centres not stated) [ERYTHRIBYSSIN I], more than 100 µM; for `COc1cc(O)c([C@]2(O)COc3cc(O)ccc3C2=O)cc1CC=C(C)C` [ERYTHRIBYSSIN J], 14.9 µM.
Consider `O=Cc1cc([C@@H]2CC(=O)c3ccc(O)cc3O2)ccc1O` [ERYTHRIBYSSIN K], for which the IC50 is more than 100 µM.
The same measure for `O=C1C[C@@H](c2ccc(O)cc2)Oc2cc(O)ccc21` [LIQUIRTIGENIN]: more than 100 µM.
For `COc1cc(O)c(C2COc3cc(O)ccc3C2=O)cc1CC=C(C)C` (configuration not stated) [PROSTRATOL C] the value was 17.2 µM.
